In article PMC8330100, “Similarities and differences in the localization, trafficking, and function of P-glycoprotein in MDR1-EGFP-transduced rat versus human brain capillary endothelial cell lines” (Fluids and Barriers of the CNS, 2021):

Tests used:
[1] = biological target: Pgp in LLC-MDR1 monolayers (Homo sapiens, UniProt P08183); conditions: [3H]dLop 5 nM
[2] = biological target: Pgp in hCMEC/D3-MDR1-EGFP monolayers (Homo sapiens, UniProt P08183); conditions: [3H]dLop 5 nM
Description: (§1) For these experiments, a concentration equilibrium transport assay (CETA) was used, which is more sensitive to identify Pgp substrates than conventional bidirectional (concentration gradient) transport assays. In the CETA, the drug is added to both (apical and basolateral) sides of the monolayer, so that the initial drug concentration is the same in both compartments, thereby minimizing the effect of passive diffusion across the cell monolayer.
(§2) In the present study, the CETA assay was used to determine the flux of the radiolabeled Pgp substrate [N-methyl-^3H]N-desmethyl loperamide ([^3H]dLop) across hCMEC/D3-MDR1-EGFP and RBE4-MDR1-EGFP monolayers. […] Cells were grown on permeable ThinCert® filter supports (12-well, 0.4 µm pore size, PET, Greiner Bio-One). […] Transport studies were performed in triplicates seven days after seeding. […] After 30, 60, 120, 180, and 240 min, samples of 50 µL and 70 µL were retrieved from the apical and basolateral chambers, respectively. Quantification of substrate transport was conducted by liquid scintillation counting using a 1450 Microbeta Trilux liquid scintillation counter (Perkin Elmer Wallac). […] Baseline dLop levels were corrected by the amount of dLop absorbed by the filter system as measured in blank inserts without cells. […]

[3] = biological target: Pgp in RBE4-MDR1-EGFP monolayers (Homo sapiens, UniProt P08183); conditions: [3H]dLop 5 nM
Description: as §1, §2

[4] = test system: RBE4-MDR1-EGFP cells; assay: Doxorubicin toxicity with or without Pgp inhibition by tariquidar, RBE4-MDR1-EGFP; assay type: cell-based, rat; conditions: doxorubicin 10 µM, 30 min
Description: (§3) For analysis of the effects of doxorubicin on Pgp-inhibited cells, confluent monolayers of RBE4- and hCMEC/D3-MDR1-EGFP cells grown on coverslips were preincubated with or without the Pgp inhibitor tariquidar (0.5 µM, 1 h, 37 °C) in Opti-MEM before the addition of doxorubicin (10 µM, 30 min, 37 °C). After substrate incubation, cells were covered with cell culture medium for 24 h. Cells were then washed once with PBS, fixed with paraformaldehyde (4%, 30 min), and permeabilized with Triton X-100 (1%, 5 min). Finally, cells were washed and coverslips were mounted in Prolong Gold antifade (Carl Roth GmbH, Karlsruhe, Germany) containing 4’,6-diamidino-2-phenylindole (DAPI) to stain nuclei. Analysis was performed with a Zeiss Axio Observer fluorescence microscope including an ApoTome.2 and using a 40× or 63× objective.

[5] = test system: hCMEC/D3-MDR1-EGFP cells; assay: Doxorubicin toxicity with or without Pgp inhibition by tariquidar, hCMEC/D3-MDR1-EGFP; assay type: cell-based, human; conditions: doxorubicin 10 µM, 30 min
Description: as §3

[6] = test system: RBE4-MDR1-EGFP cells; assay: Count of Pgp-EGFP-positive intracellular vesicles before and 24 h after doxorubicin, RBE4-MDR1-EGFP; assay type: cell-based, rat; conditions: doxorubicin 10 µM, 30 min, 24 h after treatment
Description: (§4) To evaluate the number of green-fluorescent (Pgp-EGFP positive) intracellular vesicles in RBE4- and hCMEC/D3-MDR1-EGFP cells before and 24 h after treatment with doxorubicin (10 µM, 30 min, 37 °C), imaging of the cells was performed using an inverted fluorescence microscope Lumascope 620 (Etaluma Carlsbach, USA) placed in the cell culture incubator. After treatment with doxorubicin, cells were maintained in a doxorubicin-free cell culture medium until imaging. Before imaging, cellular debris was removed by washing the cells twice with sterile PBS followed by the addition of fresh doxorubicin-free culture medium.

[7] = test system: hCMEC/D3-MDR1-EGFP cells; assay: Count of Pgp-EGFP-positive intracellular vesicles before and 24 h after doxorubicin, hCMEC/D3-MDR1-EGFP; assay type: cell-based, human; conditions: doxorubicin 10 µM, 30 min, 24 h after treatment
Description: as §4

[8] = test system: Pgp in rBCECs; conditions: cited from earlier work

[3H]CNC(=O)C(CCN1CCC(O)(c2ccc(Cl)cc2)CC1)(c1ccccc1)c1ccccc1 [dLop, [N-methyl-^3H]N-desmethyl loperamide]
asymmetrical (basolateral to apical) transport in CETA [1]: such transport was obtained | asymmetrical (basolateral to apical) transport in CETA [2]: not observed | asymmetrical (basolateral to apical) transport in CETA [3]: not observed

COc1cccc2c1C(=O)c1c(O)c3c(c(O)c1C2=O)C[C@@](O)(C(=O)CO)C[C@@H]3O[C@H]1C[C@H](N)[C@H](O)[C@H](C)O1 [doxorubicin]
toxicity 24 h after exposure, Pgp inhibited ([4]; after tariquidar 0.5 µM): cell death | toxicity 24 h after exposure, absence of Pgp inhibition ([4]; no tariquidar): without any signs of toxicity | toxicity 24 h after exposure, Pgp inhibited ([5]; after tariquidar 0.5 µM): cell death | toxicity 24 h after exposure, absence of Pgp inhibition ([5]; no tariquidar): without any signs of toxicity | increase of average number of Pgp-EGFP-positive vesicles per cell [6]: 220% | increase of average number of Pgp-EGFP-positive vesicles per cell [7]: 170%

COc1ccc(C[C@H](N)C(=O)N[C@H]2[C@@H](O)[C@H](n3cnc4c(N(C)C)ncnc43)O[C@@H]2CO)cc1 [puromycin]
effect of drug exposure on Rho123 accumulation [8]: significantly reduced
